Literature values in patent publication US20250170078A1, “STABLE PHARMACEUTICAL COMPOSITIONS OF HYDROXYUREA” (Slayback Pharma LLC., priority 2022, published 2025).

Legend:
[1] = patients, dose escalation based on blood counts
[2] = oral
[3] = on its own
[4] = not given; remark: listed apart in the source

**Q.** For NC(=O)NO [Hydroxyurea], which solubility in water is on record?
**A.** freely soluble

**Q.** And the maximum tolerable dose [1]?
**A.** 35 mg/kg/day

**Q.** What about the “absorption from the gastrointestinal tract” value [2] of the same compound?
**A.** almost completely absorbed

**Q.** And the antimicrobial activity [3]?
**A.** high level of antimicrobial activity

**Q.** What about the “stability in aqueous solutions” value [4] of the same compound?
**A.** poor stability
